Data set [1] is described as follows: In vitro logP measurement, octanol/phosphate buffer pH 7.4. It is filed as physicochemical. Conditions: octanol/phosphate buffer pH 7.4, radiolabeled compound, mean ± SD, n = 8. As to the method: In vitro logP measurement: Octanol/water partition coefficient of the radiolabeled compounds were measured at Columbia University, using the method of Wilson et al. (2001), with some modifications. Briefly, 300 to 500 μCi of radioligand in EtOH was added to a separatory funnel containing octanol (20 mL) and phosphate buffer (20 mL, pH 7.4). The mixture was shaken mechanically for 3 minutes and the layers were separated. The octanol layer (15 mL) was transferred to a second separatory funnel containing 15 mL of the phosphate buffer (pH 7.4). The mixture was shaken mechanically for 3 minutes and the layers were separated. This second octanol layer was then partitioned into four test tubes (2 mL each) and the phosphate buffer (2 mL each) added. The test tubes were vortexed for 10 minutes, and then centrifuged for 10 minutes at 1000 rpm to separate the layers. The octanol and aqueous phases (1.0 mL each) were transferred into counting tubes and counted with a gamma counter (Wallac 1480 Wizard 3M Automatic Gamma Counter, Perkin-Elmer, Boston, Mass.). The radioactivity counts were decay-corrected and the partition coefficient calculated as P=counts in octanol/counts in buffer. Eight separate measurements were preformed for each tracer.

Data set [2] deals with T1, serotonin transporter (SERT) (Rattus norvegicus, UniProt P31652).
T1 construct: membranes prepared from either the rat cortical tissues or cells expressed with cloned-human transporters; from tissue; host or cells: rat cortical tissue membranes (inferred; the alternative is cells expressing cloned human SERT)
T1 sequence (P31652 whole entry): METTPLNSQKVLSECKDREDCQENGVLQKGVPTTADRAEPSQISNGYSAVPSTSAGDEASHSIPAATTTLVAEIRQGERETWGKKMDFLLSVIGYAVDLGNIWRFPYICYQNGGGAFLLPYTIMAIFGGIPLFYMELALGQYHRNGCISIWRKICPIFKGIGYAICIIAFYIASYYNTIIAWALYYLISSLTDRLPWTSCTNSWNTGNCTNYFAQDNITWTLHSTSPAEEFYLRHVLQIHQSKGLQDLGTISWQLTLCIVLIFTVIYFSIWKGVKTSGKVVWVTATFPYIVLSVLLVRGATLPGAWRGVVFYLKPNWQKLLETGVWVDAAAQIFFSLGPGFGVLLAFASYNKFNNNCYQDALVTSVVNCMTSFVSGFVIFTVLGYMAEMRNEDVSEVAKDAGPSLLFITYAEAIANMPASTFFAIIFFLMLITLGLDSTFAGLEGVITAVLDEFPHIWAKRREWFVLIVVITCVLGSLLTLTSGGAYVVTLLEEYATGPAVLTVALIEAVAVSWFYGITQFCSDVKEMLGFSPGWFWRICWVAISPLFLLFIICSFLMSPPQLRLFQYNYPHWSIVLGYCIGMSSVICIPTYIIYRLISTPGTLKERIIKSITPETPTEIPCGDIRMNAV
In words: In vitro binding affinity for SERT, radioligand [^3H]paroxetine (Table 1). Also noted: species or system rat or human (cloned). Conditions: read-out: Ki SERT. The protocol:
(§1) Selected compounds were assayed in vitro for their binding affinity for the dopamine transporter (DAT), serotonin transporter (SERT), and norepinephrine transporter (NET) using membranes prepared from either the rat cortical tissues or cells expressed with cloned-human transporters and radioligands. Radioligands used were [^3H]paroxetine (SERT), [^3H]nisoxetine (NET), and [^3H]GBR12935 (DAT).

Data set [3] addresses T2, dopamine transporter (DAT) (Homo sapiens, UniProt Q01959).
T2 construct: host or cells: either rat cortical tissue or cells expressing the cloned human transporter
In words: In vitro binding affinity for DAT, radioligand [^3H]GBR12935 (Table 1). Also noted: species or system rat or human (cloned). The protocol:
as §1

The next data set has as its target SERT (Rattus norvegicus, UniProt P31652). Nature of the data set: In vitro binding assay on rat frontal cortex homogenates using [^3H]paroxetine. Also noted: from tissue; host or cells: frontal cortex of male Sprague-Dawley rats, washed membrane homogenate. Conditions: mean ± SD, n = 3. The protocol:
In vitro binding assays: Measurement of the inhibition constants (Ki) of the labeled compounds in FIG. 1 on rat frontal cortex homogenates were performed at Columbia University using [^3H]paroxetine, as previously described (Laruelle et al., 1988b). Briefly, male Sprague-Dawley rats (250-300 g) were killed by decapitation. Dissection of the brain was carried out on ice and samples of the frontal cortex were stored at −40° C. until binding assay. After thawing, samples were homogenized in 10 volumes of buffer (50 mM Tris-HCl, pH 7.4, 120 mM NaCl and 5 mM KCl). The homogenates were centrifuged at 10,000 rpm for 10 minutes. Pellets were resuspended in 10 volumes of buffer, incubated at 37° C. for 10 minutes, and centrifuged again. This procedure was then repeated a third time.
For the binding assay, membranes were suspended in buffer at a final protein concentration of 5 mg/mL. Unlabelled drugs were dissolved in dimethyl sulfoxide (DMSO) in borosilicate glass tubes to yield a 1 mM stock solution, from which subsequent serial dilutions were performed with the buffer. Aliquots of tissue preparation were incubated with [^3H]paroxetine (0.1 nM) at 22° C. or 37° C. for 60 minutes in the absence or presence of unlabelled drug (10^−5 to 10^−12 M) to yield a final volume of 0.5 mL (borosilicate glass tubes). Nonspecific binding was defined by incubation with 10 μM of citalopram. Each concentration was performed in triplicates. After incubation, the mixture was rapidly filtered through Whatman GF/B glass fiber filters using a 48-channel cell harvester (Brandel, Gaithersburg, Md.). The filters were washed 3 times with 4 mL each of ice cold buffer, placed in vials with 4 mL Ultima Gold solvent (Packard Instrument Co., Downers Grove, Ill.), and counted the following day for radioactivity in a liquid scintillation counter (Tricarb 1500, Packard Instrument Co., Downers Grove, Ill.). This experiment was performed three times at 22° C. and 37° C., on three different days. Ki values were derived using GraphPad Prism software (San Diego, Calif.).

For orientation: logP means a log measure of how a compound divides between an organic and an aqueous phase. The low end stands for a more hydrophilic compound, the high end for a more lipophilic compound. Usually melting point stands for the temperature of the solid-liquid transition. As a reminder, the Ki is a measure of affinity in units of concentration, obtained from inhibition or displacement.

Structures can show the parent of a compound that is named as a salt. Where two headings read alike, the source gives them in different places. Some results are limits rather than exact numbers.

Chain of SERT (P31652 whole entry): as above
T2 sequence (Q01959 whole entry, species assumed): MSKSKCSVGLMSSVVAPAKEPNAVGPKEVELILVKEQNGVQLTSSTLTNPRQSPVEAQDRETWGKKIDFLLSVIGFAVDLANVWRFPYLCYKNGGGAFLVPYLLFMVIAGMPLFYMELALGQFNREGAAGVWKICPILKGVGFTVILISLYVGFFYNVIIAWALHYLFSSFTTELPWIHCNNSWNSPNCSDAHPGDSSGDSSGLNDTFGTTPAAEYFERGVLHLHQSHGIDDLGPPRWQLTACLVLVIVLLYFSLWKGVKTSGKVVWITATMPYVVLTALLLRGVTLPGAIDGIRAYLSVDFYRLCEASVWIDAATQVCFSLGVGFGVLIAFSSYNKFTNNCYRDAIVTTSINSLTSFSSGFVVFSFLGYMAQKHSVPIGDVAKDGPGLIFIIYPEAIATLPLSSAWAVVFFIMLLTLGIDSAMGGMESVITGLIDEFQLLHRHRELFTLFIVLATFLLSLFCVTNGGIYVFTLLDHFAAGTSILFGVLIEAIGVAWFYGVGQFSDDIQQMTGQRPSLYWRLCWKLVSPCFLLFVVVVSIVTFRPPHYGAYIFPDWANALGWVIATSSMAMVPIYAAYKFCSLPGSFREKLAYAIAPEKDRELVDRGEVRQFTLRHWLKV

`CSc1ccc(C2CN3CCCC3c3ccccc32)cc1` (single isomer, unassigned; (+)) [McN 5652, (+)-6β-(4-methylthiophenyl)-1,2,3,5,6α,10β-hexahydropyrrolo[2,1-a]isoquinoline] showed a lipophilicity (logP) in data set [1] of 2.51 ± 0.03.
Turning to `CNCc1ccccc1Sc1ccc(C)cc1N` (as salt: tartrate) [Example 39, 5-Methyl-2-(2-(methylaminomethyl)phenylthio)phenylamine], the melting point was in the range of 164 to 166 °C.
On the same count and under the same terms, under `CN(C)Cc1ccccc1Sc1ccc(F)cc1N` (as salt: tartrate) [AFA, 2-(2-(Dimethylaminomethyl)phenylthio)-5-fluorophenylamine] stands 158 to 159 °C.
Consider `CN(C)Cc1ccccc1Sc1ccc(C#N)cc1N` [DASB, 3-amino-4-{2-[(dimethylamino)methyl]phenylthio}benzonitrile], for which the inhibitory constant (Ki) is 0.87 nM in data set [2]; greater than 10000 nM in data set [3]; 0.87 ± 0.41 nM on SERT (22° C., read-out: Ki for SERT at 22° C.); 1.77 ± 0.25 nM on SERT (37° C., read-out: Ki for SERT at 37° C.). This compound came in with a logP in data set [1] of 2.38 ± 0.03.

These data come from patent US20110097274A1, “Carbon-11 and fluorine-18 labeled radioligands for positron emission tomography (PET) imaging for the brain serotonin transporters” (priority 2002, published 2011).
